Measured values published in article PMC9569790, “From Solution Studies of Pharmaceuticals (Aspirin and Related Compounds) to the Thermodynamics of Aspirin-β-Cyclodextrin Interaction in water and N,N-Dimethylformamide” (International Journal of Molecular Sciences, 2022).
Where two headings read alike, the source gives them in different places. Marks after values point to notes of the source that are not given here. Each block holds one compound with its values, some of them ahead of it.

What was measured:
[1] = Conductance measurements in water; assay type: physicochemical; settings: for Ionic conductivity at infinite dilution of the anion, λA^−: from Λ^0m and λH^+ = 349.8
Method: H^+ (aq) + A^− (aq) ⇌ HA (aq)(1)
The ion-pair formation constant for the process described by Equation (1) is expressed in terms of activities, a, as shown in Equation (2): (2) Kip=aHA/aH^+∗aA^−=HA∗γHA/H^+∗[A^−]∗γ±i^2
The conductivity cell constant was determined by the method of Jones and Bradshaw [39] as previously reported [24]. Conductance measurements were performed using the Wayne Kerr Autobalance Universal Bridge, type B642, and the Wayne Kerr Model 7330 Automatic LCR Meter Conductivity Bridge at a frequency of 1 Hz. […] Conductance readings at 298.15 K were recorded after each addition.

[2] = Calorimetric enthalpies of solution in DMF; assay type: physicochemical; settings: 298.15 K; for ΔsH^0, standard enthalpy of solution: average of the ΔsH values
Excerpt: All observed heats were corrected for the heat from breaking the empty ampoules in DMF (Q = −0.0518 J). Since there were no systematic changes in the ΔsH values with changes in the concentration of the solute, the reported standard ΔsH^0 values are the average values of the data reported in Table 5. This table also includes the standard deviations of the data.
(§1) The reliability of the calorimeter was checked by carrying out the standard reaction based on the protonation of an aqueous solution of tris-(hydroxymethyl)aminomethane (THAM) with an aqueous solution of hydrochloric acid (0.1 mol dm^−3) at 298.15 K (Equation (11)). H2NC(CH2OH)3(aq) + H3O+ (aq) → H3N+C(CH2OH)3(aq) + H2O(aq)(11)
(§2) The system was then placed in a water bath until thermal equilibrium was attained, after which the ampoule was broken into the solvent and the process was monitored by the chart recorder. The observed heat was corrected for the heat of the breaking of the empty ampoule in the solvent. The standard enthalpy of the solution, ∆sH^0, was found from […].

[3] = Transfer thermodynamic parameters from water to DMF; assay type: physicochemical; settings: 298.15 K
Excerpt: As mentioned earlier, ΔsH^0 is made by the contribution of the crystal lattice enthalpy and the solvation enthalpy. In order to remove the contribution of the crystal lattice process, it is a common practice to calculate the transfer thermodynamic parameters according to the following process: […]

[4] = Gibbs free energy and entropies of solution in water, corrected for ion-pair formation; assay type: physicochemical; settings: 298.15 K; for pKsp: corrected for ion-pair formation; for ΔsG^0, standard Gibbs energy of solution: standard state 1 mol dm^−3
Excerpt: In Equation (2), concentrations are in mol dm^−3, and γ ± i^2 is the mean molar ionic coefficient calculated by the use of the Debye–Hückel equation, where γHA is the activity coefficient of the un-ionized species. In very dilute solutions, γHA may be considered equal to unity. As far as the standard Gibbs energy of the solution in the standard state of 1 mol dm^−3, ∆sG^0, is concerned, the application of Equation (3) requires knowledge of the ion-pair formation constant in solution. The availability of Kip and solubilities in water allows the calculation the ionic molar concentration, ci, and the molar concentration of ion pairs, cip, as previously shown. The data refer to the standard state (1 mol dm^−3). ΔsG^0= −RTln (ci^2 * γ±i^2)(3)
In Equation (6), aH^+ and aA^− represent the activities of the species H^+ and A^− in solution respectively. The activity of the solid is unity by convention. The activity, a, on the molar scale (mol dm^−3) is related to the ionic molar concentration, ci, by the mean molar ionic activity coefficient, γ ± i.
Thus:K^0sp = ci^2 ∗ γ ± i^2 (7)
The availability of Gibbs energy (Equation (3)) and enthalpy values allows the calculation of the entropy of solution, ΔsS. For this purpose, the following equation was used.

[5] = Calorimetric enthalpies of solution in water; assay type: physicochemical; settings: 298.15 K; for ΔsH^0, standard enthalpy of solution: average of the ΔsH values
Excerpt: No measurements could be carried out at higher concentrations since the dissolution rate of this compound in water was relatively slow. […] Since there were no systematic changes in the ΔsH values with changes in the concentration of solute, the standard ΔsH^0 value reported in Table 3 is the average value. In the dissolution of a solute in water or any other solvent, there are two processes involved, as described in Equation (5):ΔsH^0 = ΔclH^0 + ΔsolvH^0(5)
as §1, §2

[6] = water, same temperature, conductimetry; cited from earlier work
[7] = Solvate formation test in a solvent-saturated atmosphere; assay type: physicochemical; settings: water
Method: (§3) The mixtures were left in a thermostatic bath at 298.15 K until equilibrium was reached. Aliquots of the saturated solutions were removed and analyzed gravimetrically by taking a known volume of sample, evaporating the solvent and then weighing the solid in a dry atmosphere. The weighing process was repeated until a constant weight was obtained. The analytical determination was carried out in triplicate on the same equilibrium mixture. Solvate formation was tested by storing the compounds over water or DMF in a desiccator containing an atmosphere saturated with the appropriate solvent over a period of at least four days.

[8] = Solubility measurements (gravimetric analysis of saturated solutions) in water; assay type: physicochemical
Method: as §3

[9] = Conductance measurements in DMF; assay type: physicochemical; settings: 298.15 K
Method: Conductance measurements were performed using the Wayne Kerr Autobalance Universal Bridge, type B642, and the Wayne Kerr Model 7330 Automatic LCR Meter Conductivity Bridge at a frequency of 1 Hz. […] Conductance readings at 298.15 K were recorded after each addition.

[10] = parameters: method as in PMID 16509753; settings: water, 298 K, cited from earlier work
[11] = water; cited from earlier work
[12] = water, cited from earlier work
[13] = Interaction of acetylsalicylic acid with β-cyclodextrin in DMF (titration calorimetry); assay type: binding; settings: nonionized guest, 298 K
Method: For deriving the thermodynamic parameters of the interaction of cyclodextrin and these pharmaceuticals in these solvents, the four-channel microcalorimeter was used.
The latter was added from a 2 cm^3 burette connected by a silicone tube to the reaction vessel after thermal equilibrium was reached. These experiments were carried out in duplicate. For each solvent, blank experiments were performed to account for the dilution effects resulting from the addition of the appropriate anion salt to the solvent placed in the calorimetric vessel.

Structure (SMILES): CC(=O)Oc1ccc(C(=O)O)cc1 [4-acetoxybenzoic acid]
Ka, dissociation constant ([1]; water, 298.15 K): 4.55 × 10^−5
Kip, ion-pair formation constant ([1]; water, 298.15 K): 22 × 10^3
Λ^0m, molar conductance at infinite dilution ([1]; water, 298.15 K): 401 S cm^2 mol^−1
pKa ([1]; water, 298.15 K, conductance, read-out: pKa): 4.34
ΔsH^0, standard enthalpy of solution [2]: 0.932 ± 0.024 kcal/mol
ΔsH, enthalpy of solution ([2]; c = 1.03 × 10^−3 mol dm^−3): 0.93 kcal/mol
ΔsH, enthalpy of solution ([2]; c = 1.18 × 10^−3 mol dm^−3): 0.98 kcal/mol
ΔsH, enthalpy of solution ([2]; c = 1.26 × 10^−3 mol dm^−3): 0.949 kcal/mol
ΔsH, enthalpy of solution ([2]; c = 1.60 × 10^−3 mol dm^−3): 0.954 kcal/mol
ΔsH, enthalpy of solution ([2]; c = 1.82 × 10^−3 mol dm^−3): 0.908 kcal/mol
ΔtH^0, enthalpy of transfer [3]: -3.85 kcal/mol
ΔsS^0, entropy of solution [4]: −58 J K^−1 mol^−1
pKsp [4]: 6.57
ΔsG^0, standard Gibbs energy of solution [4]: 8.96 kcal/mol
ΔsH^0, standard enthalpy of solution [5]: 4.78 kcal/mol
ΔsH^0, standard enthalpy of solution ([5]; listed as 4-Acetoxybenzoic Acid): ΔsH^0 = 20 ± 1 kJ mol^−1
ΔsH, enthalpy of solution ([5]; c = 4.51 × 10^−4 mol dm^−3): 4.52 kcal/mol
ΔsH, enthalpy of solution ([5]; c = 4.57 × 10^−4 mol dm^−3): 4.381 kcal/mol
ΔsH, enthalpy of solution ([5]; c = 4.66 × 10^−4 mol dm^−3): 4.84 kcal/mol
ΔsH, enthalpy of solution ([5]; c = 4.90 × 10^−4 mol dm^−3): 4.902 kcal/mol
ΔsH, enthalpy of solution ([5]; c = 6.17 × 10^−4 mol dm^−3): 4.928 kcal/mol
ΔsH, enthalpy of solution ([5]; c = 6.75 × 10^−4 mol dm^−3): 5.017 kcal/mol
pKa (literature) [6]: 4.38
Solvate formation [7]: not detected

Ionic conductivity at infinite dilution of the anion, λA^− ([1]; water, 298.15 K): 39.2 S cm^2 mol^−1
Structure (SMILES): CC(=O)c1ccc(O)c(C(=O)O)c1 [5-acetylsalicylate]

pKa [1]: 3.04
Ka, dissociation constant ([1]; water, 298.15 K): 9.09 × 10^−4
Kip, ion-pair formation constant ([1]; water, 298.15 K): 11 × 10^2
Λ^0m, molar conductance at infinite dilution ([1]; water, 298.15 K): 389 S cm^2 mol^−1
ΔsH^0, standard enthalpy of solution [2]: 1.63 ± 0.048 kcal/mol
ΔsH, enthalpy of solution ([2]; c = 1.11 × 10^−3 mol dm^−3): 1.58 kcal/mol
ΔsH, enthalpy of solution ([2]; c = 1.45 × 10^−3 mol dm^−3): 1.59 kcal/mol
ΔsH, enthalpy of solution ([2]; c = 1.76 × 10^−3 mol dm^−3): 1.57 kcal/mol
ΔsH, enthalpy of solution ([2]; c = 2.07 × 10^−3 mol dm^−3): 1.59 kcal/mol
ΔsH, enthalpy of solution ([2]; c = 2.18 × 10^−3 mol dm^−3): 1.69 kcal/mol
ΔsH, enthalpy of solution ([2]; c = 2.38 × 10^−3 mol dm^−3): 1.66 kcal/mol
ΔtH^0, enthalpy of transfer [3]: -5.11 kcal/mol
ΔsS^0, entropy of solution [4]: −15 J K^−1 mol^−1
pKsp [4]: 5.74
ΔsG^0, standard Gibbs energy of solution [4]: 7.82 kcal/mol
ΔsH^0, standard enthalpy of solution [5]: 6.74 kcal/mol
ΔsH^0, standard enthalpy of solution ([5]; listed as 5-Acetylsalicylic Acid): ΔsH^0 = 28.2 ± 0.3 kJ mol^−1
ΔsH, enthalpy of solution ([5]; c = 2.58 × 10^−4 mol dm^−3): 6.862 kcal/mol
ΔsH, enthalpy of solution ([5]; c = 2.66 × 10^−4 mol dm^−3): 6.795 kcal/mol
ΔsH, enthalpy of solution ([5]; c = 4.49 × 10^−4 mol dm^−3): 6.74 kcal/mol
ΔsH, enthalpy of solution ([5]; c = 6.67 × 10^−4 mol dm^−3): 6.663 kcal/mol
ΔsH, enthalpy of solution ([5]; c = 7.05 × 10^−4 mol dm^−3): 6.807 kcal/mol
ΔsH, enthalpy of solution ([5]; c = 8.05 × 10^−4 mol dm^−3): 6.673 kcal/mol
Solubility, S [8]: (3.46 ± 0.22) ∗ 10^−3 mol dm^−3
Solvate formation [7]: not detected
Structure (SMILES): CC(=O)c1ccc(O)c(C(=O)O)c1 [5-acetylsalicylic acid]

Ionic conductivity at infinite dilution of the anion, λA^− ([1]; water, 298.15 K): 42.2 S cm^2 mol^−1
Structure (SMILES): CC(=O)Oc1ccccc1C(=O)O [acetylsalicylate]

Ka, dissociation constant ([1]; water, 298.15 K): 1.75 × 10^−4
Kip, ion-pair formation constant ([1]; water, 298.15 K): 57 × 10^2
Λ^0m, molar conductance at infinite dilution ([1]; water, 298.15 K): 392 S cm^2 mol^−1
Fraction hydrolyzed at the end of the conductance measurements ([1]; water, estimated from data of Pierre and Jencks [25]): 5%
ΔsH^0, standard enthalpy of solution [2]: 1.86 ± 0.048 kcal/mol
ΔsH, enthalpy of solution ([2]; c = 1.10 × 10^−3 mol dm^−3): 1.79 kcal/mol
ΔsH, enthalpy of solution ([2]; c = 1.48 × 10^−3 mol dm^−3): 1.8 kcal/mol
ΔsH, enthalpy of solution ([2]; c = 5.74 × 10^−4 mol dm^−3): 1.96 kcal/mol
ΔsH, enthalpy of solution ([2]; c = 6.42 × 10^−4 mol dm^−3): 1.87 kcal/mol
ΔsH, enthalpy of solution ([2]; c = 8.62 × 10^−4 mol dm^−3): 1.84 kcal/mol
ΔsH, enthalpy of solution ([2]; c = 9.10 × 10^−4 mol dm^−3): 1.87 kcal/mol
Speciation in solution from conductance [9]: undissociated
ΔtH^0, enthalpy of transfer [3]: -0.789 kcal/mol
ΔsS^0, entropy of solution [4]: −67 J K^−1 mol^−1
pKsp [4]: 5.45
ΔsG^0, standard Gibbs energy of solution [4]: 7.43 kcal/mol
ΔsH^0, standard enthalpy of solution ([5]; listed as Acetylsalicylic Acid): ΔsH^0 = 11.1 ± 0.6 kJ mol^−1
ΔsH^0, standard enthalpy of solution ([5]; listed as Acetylsalicylic acid): 2.65 kcal/mol
ΔsH, enthalpy of solution ([5]; c = 2.40 × 10^−4 mol dm^−3): 2.823 kcal/mol
ΔsH, enthalpy of solution ([5]; c = 3.51 × 10^−4 mol dm^−3): 2.5 kcal/mol
ΔsH, enthalpy of solution ([5]; c = 4.66 × 10^−4 mol dm^−3): 2.44 kcal/mol
ΔsH, enthalpy of solution ([5]; c = 5.13 × 10^−4 mol dm^−3): 2.646 kcal/mol
ΔsH, enthalpy of solution ([5]; c = 5.26 × 10^−4 mol dm^−3): 2.686 kcal/mol
ΔsH, enthalpy of solution ([5]; c = 5.99 × 10^−4 mol dm^−3): 2.799 kcal/mol
Solubility, S [8]: (2.20 ± 0.28) ∗ 10^−2 mol dm^−3
Solvate formation [7]: not detected
Structure (SMILES): CC(=O)Oc1ccccc1C(=O)O [acetylsalicylic acid, reference compound]
log Kass ([10]; pH 1.75, nonionized guest, calculated from Kass of ref 15): 2.74 ^a
log Ks ([10]; pH 6.00, ionized guest, calculated from Ks of ref 15): 1.71 ^a
Apparent enthalpy of solution (literature, van ’t Hoff equation) [11]: 5.47 kcal/mol
Solubility (literature, molar scale) ([12]; 299.65 K): 2.31 × 10^−2 mol dm^−3
Solubility (literature) [12]: 1.78 × 10^−2 mol/dm^−3
log Kass [13]: 4.66 ± 0.03 ^b
